How the values were obtained:
L1210 [1] = assay: Antitumor activity against mouse L1210 cells […] in ip dosed C3H X DBA2 F1 hybrid mouse on day 0 and dosed at LD10 level once daily on days 1 to 5 assessed as increase in life span relative to control; assay type: functional
[2] = Displacement of ethidium from poly[d(A-T)]-poly[d(A-T)] DNA by fluorimetric method
Bos taurus = organism: Bos taurus; assay: Displacement of ethidium from calf thymus DNA by fluorimetric method
Mus musculus = assay: Toxicity in ip dosed C3H X DBA2 F1 hybrid mouse […] with mouse L1210 cells on day 0 and dosed once daily on days 1 to 5 measured after 50 days; assay type: organism-based; conditions: in vivo, 1200 h
[3] = Lipophilic-hydrophilic balance, Rm of the compound by partition chromatography; assay type: physicochemical
L1210 [4] = assay: Antitumor activity against mouse L1210 cells […] in ip dosed C3H X DBA2 F1 hybrid mouse on day 0 and dosed once daily on days 1 to 5 assessed as increase in life span relative to control; assay type: functional
[5] = Displacement of ethidium from poly[d(G-C)]-poly[d(G-C)] DNA (unknown origin) by fluorimetric method

SMILES | log(ILSmax) (L1210 [1]) | C50 [2] | C50 (Bos taurus) | LD10 (Mus musculus) | Rm [3] | D40 (L1210 [4]) | C50 [5]
COc1cc(NC(=O)c2ccc(Nc3cc[n+](C)cc3)cc2)ccc1Nc1cc[n+](C)c2cc(N)ccc12.[Br-].[Br-] | 2.23 | 0.15 µM | 0.69 µM | 14 mg/kg | 0.14 | 3 mg/kg | 1.18 µM
C[n+]1cccc(NC(=O)c2ccc(NC(=O)c3ccc(Nc4c5ccccc5[n+](C)c5ccc(N)cc45)cc3)cc2)c1.[Cl-].[Cl-] | 2.36 | 0.09 µM | 0.17 µM | 55 mg/kg | 0.44 | 9 mg/kg | 0.25 µM
C[n+]1cccc(-c2ccc(NC(=O)/C=C/c3ccc(C(=O)Nc4ccc(-c5ccc(-c6ccc(-c7ccc[n+](C)c7)cc6)cc5)cc4)cc3)cc2)c1.Cc1ccc(S(=O)(=O)[O-])cc1.Cc1ccc(S(=O)(=O)[O-])cc1 | 2.16 | 0.13 µM | 0.3 µM | 85 mg/kg | -0.75 | 26.9 mg/kg | 0.46 µM
CC(=O)Nc1ccc2c(Nc3ccc(NC(=O)c4ccc(Nc5cc[n+](C)cc5)cc4)cc3)cc[n+](C)c2c1.Cc1ccc(S(=O)(=O)[O-])cc1.Cc1ccc(S(=O)(=O)[O-])cc1 | 2.26 | 0.13 µM | 0.34 µM | 97 mg/kg | -0.1 | 10 mg/kg | 0.53 µM
COc1cc(C(=O)Nc2ccc[n+](C)c2)ccc1NC(=O)c1ccc(C(=O)Nc2ccc(C(=O)Nc3ccc[n+](C)c3)cc2OC)cc1.Cc1ccc(S(=O)(=O)[O-])cc1.Cc1ccc(S(=O)(=O)[O-])cc1 | 1.89 | 0.72 µM | 0.84 µM | 25 mg/kg | -0.41 | 13 mg/kg | 0.9 µM
CC[n+]1cccc2cc(NC(=O)c3ccc(-c4ccc(-c5ccc(-c6ccc(C(=O)Nc7ccc8c(ccc[n+]8CC)c7)cc6)cc5)cc4)cc3)ccc21.Cc1ccc(S(=O)(=O)[O-])cc1.Cc1ccc(S(=O)(=O)[O-])cc1 | 2.16 | 0.18 µM | 0.3 µM | 31 mg/kg | -0.1 | 10.5 mg/kg | 0.61 µM
C[n+]1cccc(NC(=O)c2ccc(NC(=O)/C=C/c3ccc(C(=O)Nc4ccc(C(=O)Nc5ccc[n+](C)c5)cc4)cc3)cc2)c1.Cc1ccc(S(=O)(=O)[O-])cc1.Cc1ccc(S(=O)(=O)[O-])cc1 | 1.99 | 0.22 µM | 0.3 µM | 100 mg/kg | -0.95 | 21 mg/kg | 0.23 µM
Cc1ccc(S(=O)(=O)[O-])cc1.Cc1ccc(S(=O)(=O)[O-])cc1.Cc1cccc2c(Nc3ccc(C(=O)Nc4ccc(Nc5cc[n+](C)cc5)cc4)cc3)cc[n+](C)c12 | 2.02 | 0.31 µM | 0.87 µM | 60 mg/kg | 0.51 | 12 mg/kg | 2.01 µM
C[n+]1cccc(NC(=O)c2ccc(NC(=O)c3cccc(C(=O)Nc4ccc(C(=O)Nc5ccc[n+](C)c5)cc4)c3)cc2)c1.Cc1ccc(S(=O)(=O)[O-])cc1.Cc1ccc(S(=O)(=O)[O-])cc1 | 1.85 | 1.2 µM | 0.9 µM | 35 mg/kg | 0.2 | 25 mg/kg | 1.9 µM
C[n+]1cccc2cc(NC(=O)c3ccc(C(=O)Nc4ccc(NC(=O)c5ccc6c(ccc[n+]6C)c5)cc4)cc3)ccc21.Cc1ccc(S(=O)(=O)[O-])cc1.Cc1ccc(S(=O)(=O)[O-])cc1 | 1.65 | 0.35 µM | 0.3 µM | 90 mg/kg | -0.57 | 80 mg/kg | 0.8 µM
C[n+]1cccc(NC(=O)c2ccc(NC(=O)c3ccc(C(=O)Nc4ccc(C(=O)Nc5ccc[n+](C)c5)cc4)c4ccccc34)cc2)c1.Cc1ccc(S(=O)(=O)[O-])cc1.Cc1ccc(S(=O)(=O)[O-])cc1 | 1.84 | 1.1 µM | 1.5 µM | 140 mg/kg | 0.45 | 54.5 mg/kg | 2.7 µM
CC[n+]1cc(-c2ccc(NC(=O)c3ccc(C(=O)Nc4ccc(-c5c[n+](CC)c(N)nc5N)cc4)cc3)cc2)c(N)nc1N.Cc1ccc(S(=O)(=O)[O-])cc1.Cc1ccc(S(=O)(=O)[O-])cc1 | 2.17 | 0.45 µM | 0.84 µM | 15 mg/kg | -0.19 | 3.5 mg/kg | 2.1 µM
C[n+]1cccc(NC(=O)c2ccc(NC(=O)c3ccc(C(=O)Nc4ccc(NC(=N)NC(=N)N)cc4)cc3)cc2)c1.I.[I-] | 2.2 | 0.77 µM | 1.14 µM | 11 mg/kg | -0.4 | 1 mg/kg | 1.71 µM
C[n+]1c2ccccc2c(Nc2ccc(NC(=O)Nc3ccc(NC(=N)NC(=N)N)cc3)cc2)c2ccc(N)cc21.Cl.[Cl-] | 2.48 | 0.06 µM | 0.09 µM | 200 mg/kg | 0.46 | 8 mg/kg | 0.13 µM
C[n+]1ccc(Nc2ccc(NC(=O)c3ccc(Nc4cc[n+](C)c5cc(Cl)ccc45)cc3)cc2)cc1.[Br-].[Br-] | 1.97 | 0.21 µM | 1 µM | 39 mg/kg | 0.31 | 12 mg/kg | 2.27 µM
C[n+]1cccc(NC(=O)c2ccc(NC(=O)c3ccc(C(=O)Nc4ccc(-c5ccc(-c6ccc(-c7ccc[n+](C)c7)cc6)cc5)cc4)cc3)cc2)c1.Cc1ccc(S(=O)(=O)[O-])cc1.Cc1ccc(S(=O)(=O)[O-])cc1 | 2.25 | 0.5 µM | 0.63 µM | 14 mg/kg | -0.4 | 2.5 mg/kg | 0.84 µM
CCCCC[n+]1cccc(NC(=O)c2ccc(NC(=O)c3ccc(C(=O)Nc4ccc(C(=O)Nc5ccc[n+](CCCCC)c5)cc4)cc3)cc2)c1.Cc1ccc(S(=O)(=O)[O-])cc1.Cc1ccc(S(=O)(=O)[O-])cc1 | <1.4 | 0.42 µM | 0.38 µM | 70 mg/kg | 0.9 | – | 0.92 µM
C[n+]1ccc(Nc2ccc(C(=O)Nc3ccc(Nc4cc[n+](C)c5ccccc45)cc3N)cc2)cc1.[Br-].[Br-] | <1.4 | 0.64 µM | 1.87 µM | 7 mg/kg | 0.35 | – | 2.05 µM
C[n+]1ccc(Nc2ccc(NC(=O)c3ccc(Nc4nc[n+](C)c5ccc(N)cc45)cc3)cc2)cc1.Cc1ccc(S(=O)(=O)[O-])cc1.Cc1ccc(S(=O)(=O)[O-])cc1 | <1.4 | 0.5 µM | 0.88 µM | 3 mg/kg | 0.13 | – | 1.7 µM
CCCC[n+]1ccc(Nc2ccc(NC(=O)c3ccc(Nc4cc[n+](CCCC)c5ccccc45)cc3)cc2)cc1.[Br-].[Br-] | <1.4 | 0.19 µM | 2.1 µM | 11 mg/kg | 1.14 | – | 2.8 µM
Cc1c[n+](C)c2ccccc2c1Nc1ccc(C(=O)Nc2ccc(Nc3cc[n+](C)cc3)cc2)cc1.[Br-].[Br-] | <1.4 | 4.5 µM | 4.9 µM | 5 mg/kg | 0.6 | – | 15 µM
